Laboratory results from ChEMBL document CHEMBL5346892, “Design and synthesis of benzochromene derivatives as AcrB inhibitors for the reversal of bacterial multidrug resistance” (Eur J Med Chem, 2023).
The source made the active and inactive calls. The rule behind the calls is not given here.

Columns and labels:
Escherichia coli [1] = test: Synergistic antibacterial activity against wild type Escherichia coli BW25113 assessed as erythromycin MIC at 16 microg/ml incubated for 18 hrs in presence of colistin by broth dilution assay; assay type: functional; settings: dose 16 µg/ml
Escherichia coli [2] = test: Synergistic antibacterial activity against wild type Escherichia coli BW25113 assessed as minocycline MIC at 32 microg/ml incubated for 18 hrs in presence of colistin by broth dilution assay; assay type: functional; settings: dose 32 µg/ml
Escherichia coli [3] = test: Synergistic antibacterial activity against wild type Escherichia coli BW25113 assessed as minocycline MIC at 8 microg/ml incubated for 18 hrs in presence of colistin by broth dilution assay; assay type: functional; settings: dose 8 µg/ml
Cell membrane = test: Induction of inner membrane permeabilization in Escherichia coli BW25113 assessed as increase in fluorescence intensity at 64 microg/ml incubated for 10 mins by DiOC2 dye based fluorimeter analysis; assay type: subcellular; settings: dose 64.0 µg/ml
Escherichia coli [4] = test: Synergistic antibacterial activity against wild type Escherichia coli BW25113 assessed as erythromycin MIC at 8 microg/ml incubated for 18 hrs in presence of colistin by broth dilution assay; assay type: functional; settings: dose 8 µg/ml
Escherichia coli [5] = test: Synergistic antibacterial activity against wild type Escherichia coli BW25113 assessed as erythromycin MIC at 64 microg/ml incubated for 18 hrs in presence of colistin by broth dilution assay; assay type: functional; settings: dose 64 µg/ml
Escherichia coli [6] = test: Synergistic antibacterial activity against wild type Escherichia coli BW25113 assessed as erythromycin MIC at 8 microg/ml incubated for 18 hrs by broth dilution assay; assay type: functional; settings: dose 8 µg/ml
Escherichia coli [7] = test: Synergistic antibacterial activity against wild type Escherichia coli BW25113 assessed as levofloxacin MIC at 32 microg/ml incubated for 18 hrs by broth dilution assay; assay type: functional; settings: dose 32 µg/ml
Escherichia coli [8] = test: Synergistic antibacterial activity against wild type Escherichia coli BW25113 assessed as minocycline MIC at 128 microg/ml incubated for 18 hrs by broth dilution assay; assay type: functional; settings: dose 128 µg/ml
Escherichia coli [9] = test: Synergistic antibacterial activity against wild type Escherichia coli BW25113 assessed as levofloxacin MIC at 8 microg/ml incubated for 18 hrs in presence of colistin by broth dilution assay; assay type: functional; settings: dose 8 µg/ml
Escherichia coli [10] = test: Synergistic antibacterial activity against wild type Escherichia coli BW25113 assessed as levofloxacin MIC at 8 microg/ml incubated for 18 hrs by broth dilution assay; assay type: functional; settings: dose 8 µg/ml
Escherichia coli [11] = test: Synergistic antibacterial activity against wild type Escherichia coli BW25113 assessed as levofloxacin MIC at 32 microg/ml incubated for 18 hrs in presence of colistin by broth dilution assay; assay type: functional; settings: dose 32 µg/ml
Escherichia coli [12] = test: Synergistic antibacterial activity against wild type Escherichia coli BW25113 assessed as minocycline MIC at 16 microg/ml incubated for 18 hrs in presence of colistin by broth dilution assay; assay type: functional; settings: dose 16 µg/ml
[13] = Hemolytic activity in mouse RBC assessed as hemolysis at 4 to 256 microg/ml incubated for 1 hr by microplate reader analysis; assay type: toxicity, cell-based, Erythrocyte; settings: mouse red blood cells (erythrocytes), at 4 to 256 µg/mL, dose 4-256 µg/ml, read-out: Activity
Escherichia coli [14] = test: Synergistic antibacterial activity against wild type Escherichia coli BW25113 assessed as minocycline MIC at 32 microg/ml incubated for 18 hrs by broth dilution assay; assay type: functional; settings: dose 32 µg/ml
Escherichia coli [15] = test: Synergistic antibacterial activity against wild type Escherichia coli BW25113 assessed as erythromycin MIC at 32 microg/ml incubated for 18 hrs by broth dilution assay; assay type: functional; settings: dose 32 µg/ml
Escherichia coli [16] = test: Synergistic antibacterial activity against wild type Escherichia coli BW25113 assessed as levofloxacin MIC at 16 microg/ml incubated for 18 hrs by broth dilution assay; assay type: functional; settings: dose 16 µg/ml
Escherichia coli [17] = test: Synergistic antibacterial activity against wild type Escherichia coli BW25113 assessed as levofloxacin MIC at 64 microg/ml incubated for 18 hrs by broth dilution assay; assay type: functional; settings: dose 64 µg/ml
Escherichia coli [18] = test: Synergistic antibacterial activity against wild type Escherichia coli BW25113 assessed as minocycline MIC at 8 microg/ml incubated for 18 hrs by broth dilution assay; assay type: functional; settings: dose 8 µg/ml
[19] = Toxicity in Caenorhabditis elegans assessed as survival rate at 128 microg/ml measured after 72 hrs by light microscopic analysis; settings: at 128 µg/mL
Escherichia coli [20] = test: Synergistic antibacterial activity against wild type Escherichia coli BW25113 assessed as erythromycin MIC at 64 microg/ml incubated for 18 hrs by broth dilution assay; assay type: functional; settings: dose 64 µg/ml
Escherichia coli [21] = test: Synergistic antibacterial activity against wild type Escherichia coli BW25113 assessed as levofloxacin MIC at 64 microg/ml incubated for 18 hrs in presence of colistin by broth dilution assay; assay type: functional; settings: dose 64 µg/ml
Escherichia coli [22] = test: Synergistic antibacterial activity against wild type Escherichia coli BW25113 assessed as levofloxacin MIC at 16 microg/ml incubated for 18 hrs in presence of colistin by broth dilution assay; assay type: functional; settings: dose 16 µg/ml
Escherichia coli [23] = test: Synergistic antibacterial activity against wild type Escherichia coli BW25113 assessed as erythromycin MIC at 32 microg/ml incubated for 18 hrs in presence of colistin by broth dilution assay; assay type: functional; settings: dose 32 µg/ml
Escherichia coli [24] = test: Synergistic antibacterial activity against wild type Escherichia coli BW25113 assessed as levofloxacin MIC at 128 microg/ml incubated for 18 hrs by broth dilution assay; assay type: functional; settings: dose 128 µg/ml
Escherichia coli [25] = test: Synergistic antibacterial activity against wild type Escherichia coli BW25113 assessed as minocycline MIC at 64 microg/ml incubated for 18 hrs in presence of colistin by broth dilution assay; assay type: functional; settings: dose 64 µg/ml
Escherichia coli [26] = test: Synergistic antibacterial activity against wild type Escherichia coli BW25113 assessed as erythromycin MIC at 16 microg/ml incubated for 18 hrs by broth dilution assay; assay type: functional; settings: dose 16 µg/ml

| Compound | MIC (Escherichia coli [1]) | MIC (Escherichia coli [2]) | MIC (Escherichia coli [3]) | MIC (Escherichia coli [4]) | MIC (Escherichia coli [6]) | MIC (Escherichia coli [7]) | MIC (Escherichia coli [8]) | MIC (Escherichia coli [9]) | MIC (Escherichia coli [10]) | MIC (Escherichia coli [11]) | hemolysis at 1 h [13] | MIC (Escherichia coli [14]) | MIC (Escherichia coli [15]) | MIC (Escherichia coli [16]) | MIC (Escherichia coli [17]) | survival at 72 h, 128 microg/ml [19] | MIC (Escherichia coli [20]) | MIC (Escherichia coli [21]) | MIC (Escherichia coli [24]) | MIC (Escherichia coli [26]) | also measured |
| --- | --- | --- | --- | --- | --- | --- | --- | --- | --- | --- | --- | --- | --- | --- | --- | --- | --- | --- | --- | --- | --- |
| CC1(C)CCc2c(C(=O)N3CCOCC3)cc3c(OCCSc4ccc([N+](=O)[O-])cc4)cccc3c2O1 | 8 µg/mL | 1 µg/mL | 1 µg/mL | 8 µg/mL | 16 µg/mL | 0.016 µg/mL | 2 µg/mL | 0.032 µg/mL | 0.016 µg/mL | 0.032 µg/mL | < 5% | 2 µg/mL | 16 µg/mL | 0.032 µg/mL | 0.016 µg/mL | 90% | 16 µg/mL | 0.032 µg/mL | 0.016 µg/mL | 16 µg/mL | Activity (Cell membrane): inactive; MIC (Escherichia coli [5]): 4 µg/mL; MIC (Escherichia coli [12]): 1 µg/mL; MIC (Escherichia coli [18]): 2 µg/mL; MIC (Escherichia coli [22]): 0.032 µg/mL; MIC (Escherichia coli [23]): 4 µg/mL; MIC (Escherichia coli [25]): 0.5 µg/mL |
| CC1(C)CCc2c(C(=O)N3CCOCC3)cc3c(OCCN4CCN(c5ccccc5)CC4)cccc3c2O1 |  |  | 0.5 µg/mL | 4 µg/mL | 32 µg/mL | 0.016 µg/mL | 1 µg/mL | 0.032 µg/mL | 0.032 µg/mL | 0.032 µg/mL | < 5% | 2 µg/mL | 32 µg/mL | 0.016 µg/mL | 0.016 µg/mL | 90% | 32 µg/mL | 0.032 µg/mL | 0.016 µg/mL | 32 µg/mL | Activity (Cell membrane): inactive; MIC (Escherichia coli [18]): 2 µg/mL |
| CC1(C)CCc2c(C(=O)N3CCOCC3)cc3c(OCCCOc4cccc(C(=O)O)c4)cccc3c2O1 | 4 µg/mL | 0.5 µg/mL | 0.5 µg/mL | 8 µg/mL | 32 µg/mL | 0.016 µg/mL | 0.5 µg/mL | 0.016 µg/mL | 0.016 µg/mL | 0.016 µg/mL | < 5% | 1 µg/mL | 32 µg/mL | 0.016 µg/mL | 0.016 µg/mL | 90% | 16 µg/mL | 0.008 µg/mL | 0.016 µg/mL | 32 µg/mL | MIC (Escherichia coli [5]): 4 µg/mL; MIC (Escherichia coli [12]): 0.5 µg/mL; MIC (Escherichia coli [22]): 0.016 µg/mL; MIC (Escherichia coli [23]): 4 µg/mL; MIC (Escherichia coli [25]): 0.5 µg/mL |
| COc1ccc(OCCCOc2cccc3c4c(c(C(=O)N5CCOCC5)cc23)CCC(C)(C)O4)cc1 | 16 µg/mL | 0.5 µg/mL | 0.5 µg/mL | 16 µg/mL | 32 µg/mL | 0.032 µg/mL | 1 µg/mL | 0.016 µg/mL | 0.032 µg/mL | 0.032 µg/mL | < 5% | 2 µg/mL | 32 µg/mL | 0.032 µg/mL | 0.032 µg/mL | 90% | 16 µg/mL | 0.032 µg/mL | 0.032 µg/mL | 32 µg/mL | Activity (Cell membrane): inactive; MIC (Escherichia coli [5]): 16 µg/mL; MIC (Escherichia coli [12]): 0.5 µg/mL; MIC (Escherichia coli [18]): 2 µg/mL; MIC (Escherichia coli [22]): 0.016 µg/mL; MIC (Escherichia coli [23]): 16 µg/mL; MIC (Escherichia coli [25]): 0.25 µg/mL |
